# Experiments:
# FimH = target: T1, FimH (Escherichia coli, UniProt Q1R2J4); assay type: cell-based; conditions: concentration reducing bacterial agglutination of guinea pig red blood cells by greater than 90%; UTI89 bacteria;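 note: concentration in nM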
# T1 construct: endogenous in cells; host or cells: E. coli UTI89 whole bacteria, agglutinating guinea pig red blood cells
# Procedure: Hemagglutination Inhibition Assay (HAI)
# The hemagglutination inhibition (HAI) assay was performed with UTI89 bacteria and guinea pig red blood cells, as previously described (S. J. Hultgren, W. R. Schwan, A. J. Schaeffer, J. L. Duncan Infect. Immun. 1986, 54, 613-620 and Jarvis, C.; Han, Z.; Kalas, V.; Klein, R.; Pinkner, J. S.; Ford, B.; Binkley, J.; Cusumano, C. K.; Cusumano, Z.; Mydock-McGrane, L.; Hultgren, S. J.; Janetka, J. W., ChemMedChem 2016, 11, 367-373).
# [1] = Rat pharmacokinetics: IV infusion 1 mg/kg, then PO 5 mg/kg; blood and urine by LC-MS/MS; assay type: in vivo, Male Wistar Han rats; conditions: for bioavailability: male, Wistar Han; for bioavailability / AUC: whole blood; for bioavailability / % F: oral bioavailability, ratio of dose-normalised AUC PO (5 mg/kg) and IV infusion (1 mg/kg); for Ue % po: percentage of oral dose (5 mg/kg) eliminated unchanged in urine; for AUC: area under blood concentration-time profile, PO 5 mg/kg, male Wistar Han rats, n = 3
# From the text: General Assays for Obtaining AUC Oral h*μm, % F, and Ue % PO Values
# Male Wistar Han rats were purchased from Vital River Laboratory Animal Technology Co. Ltd (Beijing, China). The animals were approx. 6-8 weeks old with body weights of 200-300 g on the dosing date. The animals were housed in a 12-hour light/12-hour dark cycle environment and had free access to food and water. All animals were fed prior to dosing. Studies were approved by the Pharmaron Institutional Animal Care and Use Committee (IACUC).
# Test article was administered as an intravenous infusion for 1 hour (1 mg/kg) at 5 mL/kg/h. After 48 h, animals received a single oral dose (5 mg/kg, free form) at a dose volume of 10 mL/kg, respectively. Blood samples were collected at various time points after IV infusion and PO administrations. Urine samples were collected at various time points after IV infusion and PO administrations.
# Test article was dissolved in DMSO with vortexing and sonification to obtain a stock solution. An aliquot of the stock solution was mixed with 10% HP-β-CD in saline with vortexing to obtain a solution with concentration at 0.2 mg/mL of test article.
# Test article was added into 1% Methyl Cellulose with vortexing and sonication to obtain a homogeneous suspension with concentration at 0.5 mg/mL of test article.
# For IV infusion (1 mg/kg) administration, blood samples were collected from each animal at 0, 0.25, 0.5, 0.75, 1, 1.08, 1.25, 1.5, 1.75, 2, 3, 5, 8, 12, 24 hour post-dose.
# For PO (5 mg/kg) administration, blood samples were collected from each animal at 0, 0.25, 0.5, 1, 1.5, 2, 3, 4, 6, 8, 12, 24 hour post-dose.
# Blood samples (50 μL) were collected from each animal via jugular vein. These blood samples were placed into tubes containing K2EDTA. Whole blood was mixed with same volume of water and inverted several times. The blood samples were stored at −75±15° C. until analysis.
# For IV infusion (1 mg/kg) administration, urine samples were collected from each animal at 0-4, 4-8, 8-12, 12-24 hour post-dose.
# For PO (5 mg/kg) administration, urine samples were collected from each animal at 0-4, 4-8, 8-12, 12-24 hour post-dose.
# Urine samples were collected continuously into containers maintained over dry ice at the intervals outlined below and stored at −80° C. prior to analysis.
# 55 μL of standards, 55 μL of QC samples or 55 μL of unknown samples (50 μL of blood or urine with 5 μL 50% acetonitrile) were mixed to 200 μL of acetonitrile containing IS (dexamethasone) to precipitate proteins. Then the samples were vortexed for 30 sec. After centrifugation at 4° C., 4700 rpm for 30 min, and 5 μL of the supernatant was injected into the LC-MS/MS system for quantitative analysis.
# Test article blood and urine concentrations for each animal following IV infusion at 1 mg/kg and PO at 5 mg/kg were used to calculate pharmacokinetic parameters by employing a non-compartmental analysis (Phoenix™ WinNonlin® 7.0). The linear trapezoidal algorithm was used for AUC calculation.
Structure (SMILES),HAI titer EC > 90 (FimH),bioavailability [1] [%],Ue % po [1],AUC [1] [µM·h],% F [1]
"Cc1cc(-c2cc(F)c(C)c(F)c2)ccc1[C@@H](O)[C@H]1O[C@H](CO)[C@@H](O)[C@H](O)[C@@H]1O [Example 1, (2R,3S,4S,5S,6R)-2-((R)-(3′,5′-Difluoro-3,4′-dimethyl-[1,1′-biphenyl]-4-yl)(hydroxy)methyl)-6-(hydroxymethyl)tetrahydro-2H-pyran-3,4,5-triol]",“++++” (<50 “++++”),10 to 30,“++” (0.5 <= x <= 5%),< 0.5,–
"Cc1cc(-c2cc(F)c(Cl)c(F)c2)ccc1[C@@H](O)[C@H]1O[C@H](CO)[C@@H](O)[C@H](O)[C@@H]1O [Example 2, (2R,3S,4S,5S,6R)-2-((R)-(4′-Chloro-3′,5′-difluoro-3-methyl-[1,1′-biphenyl]-4-yl)(hydroxy)methyl)-6-(hydroxymethyl)tetrahydro-2H-pyran-3,4,5-triol]",“++++” (<50 “++++”),10 to 30,“++” (0.5 <= x <= 5%),> 1,–
"Cc1cc(-c2cc(F)c(Br)c(F)c2)ccc1[C@@H](O)[C@H]1O[C@H](CO)[C@@H](O)[C@H](O)[C@@H]1O [Example 3, (2R,3S,4S,5S,6R)-2-((R)-(4′-Bromo-3′,5′-difluoro-3-methyl-[1,1′-biphenyl]-4-yl)(hydroxy)methyl)-6-(hydroxymethyl)tetrahydro-2H-pyran-3,4,5-triol]",“++++” (<50 “++++”),10 to 30,“++” (0.5 <= x <= 5%),> 1,–
"C=Cc1c(F)cc(-c2ccc([C@@H](O)[C@H]3O[C@H](CO)[C@@H](O)[C@H](O)[C@@H]3O)c(C)c2)cc1F [Example 4, (2R,3S,4S,5S,6R)-2-((R)-(3′,5′-Difluoro-3-methyl-4′-vinyl-[1,1′-biphenyl]-4-yl)(hydroxy)methyl)-6-(hydroxymethyl)tetrahydro-2H-pyran-3,4,5-triol]",“++++” (<50 “++++”),10 to 30,“++” (0.5 <= x <= 5%),< 0.5,–
"Cc1cc(-c2ccc(C(F)(F)F)c(F)c2)ccc1[C@@H](O)[C@H]1O[C@H](CO)[C@@H](O)[C@H](O)[C@@H]1O [Example 5, (2R,3S,4S,5S,6R)-2-((R)-(3′-Fluoro-3-methyl-4′-(trifluoromethyl)-[1,1′-biphenyl]-4-yl)(hydroxy)methyl)-6-(hydroxymethyl)tetrahydro-2H-pyran-3,4,5-triol]",“++++” (<50 “++++”),10 to 30,“++” (0.5 <= x <= 5%),0.5 to 1,–
"Cc1cc(-c2cc(F)cc(C(F)(F)F)c2)ccc1[C@@H](O)[C@H]1O[C@H](CO)[C@@H](O)[C@H](O)[C@@H]1O [Example 6, (2R,3S,4S,5S,6R)-2-((R)-(3′-Fluoro-3-methyl-5′-(trifluoromethyl)-[1,1′-biphenyl]-4-yl)(hydroxy)methyl)-6-(hydroxymethyl)tetrahydro-2H-pyran-3,4,5-triol]",“++++” (<50 “++++”),10 to 30,“++” (0.5 <= x <= 5%),< 0.5,–
"Cc1cc(-c2cc(F)c(F)c(F)c2)ccc1[C@@H](O)[C@H]1O[C@H](CO)[C@@H](O)[C@H](O)[C@@H]1O [Example 7, (2R,3S,4S,5S,6R)-2-((R)-Hydroxy(3′,4′,5′-trifluoro-3-methyl-[1,1′-biphenyl]-4-yl)methyl)-6-(hydroxymethyl)tetrahydro-2H-pyran-3,4,5-triol]",“++++” (<50 “++++”),> 30,“+++” (>5%),> 1,–
"OC[C@H]1O[C@H]([C@H](O)c2ccc(-c3cc(F)cc(F)c3)cc2C(F)(F)F)[C@@H](O)[C@@H](O)[C@@H]1O [Example 8, (2R,3S,4S,5S,6R)-2-((R)-(3′,5′-Difluoro-3-(trifluoromethyl)-[1,1′-biphenyl]-4-yl)(hydroxy)methyl)-6-(hydroxymethyl)tetrahydro-2H-pyran-3,4,5-triol]",“++++” (<50 “++++”),> 30,“++” (0.5 <= x <= 5%),< 0.5,–
"Cc1cc(-c2cc(F)cc(F)c2)ccc1[C@@H](O)[C@H]1O[C@H](CO)[C@@H](O)[C@H](O)[C@@H]1O [Example 9, (2R,3S,4S,5S,6R)-2-((R)-(3′,5′-Difluoro-3-methyl-[1,1′-biphenyl]-4-yl)(hydroxy)methyl)-6-(hydroxymethyl)tetrahydro-2H-pyran-3,4,5-triol]",“++++” (<50 “++++”),> 30,“+++” (>5%),0.5 to 1,–
Cc1cc(F)c(-c2ccc([C@@H](O)[C@H]3O[C@H](CO)[C@@H](O)[C@H](O)[C@@H]3O)c(C)c2)cc1Cl [Example 11],“+++” (50-200 “+++”),–,“++” (0.5 <= x <= 5%),–,“+++” (>30%)
Cc1cc(-c2ccc(Cl)c(Cl)c2)ccc1[C@@H](O)[C@H]1O[C@H](CO)[C@@H](O)[C@H](O)[C@@H]1O [Example 15],“++++” (<50 “++++”),–,“++” (0.5 <= x <= 5%),–,“++” (10 <= x <= 30%)
Cc1cc(-c2cc(Cl)cc(Cl)c2)ccc1[C@@H](O)[C@H]1O[C@H](CO)[C@@H](O)[C@H](O)[C@@H]1O [Example 16],“++++” (<50 “++++”),–,“++” (0.5 <= x <= 5%),–,“++” (10 <= x <= 30%)
COc1cc(F)cc(-c2ccc([C@@H](O)[C@H]3O[C@H](CO)[C@@H](O)[C@H](O)[C@@H]3O)c(C)c2)c1 [Example 24],“++++” (<50 “++++”),–,“++” (0.5 <= x <= 5%),–,“++” (10 <= x <= 30%)
OC[C@H]1O[C@H]([C@H](O)c2c(F)cc(-c3cc(F)cc(F)c3)cc2C(F)(F)F)[C@@H](O)[C@@H](O)[C@@H]1O [Example 32],“++++” (<50 “++++”),–,“++” (0.5 <= x <= 5%),–,“++” (10 <= x <= 30%)
COc1cc(-c2ccc([C@@H](O)[C@H]3O[C@H](CO)[C@@H](O)[C@H](O)[C@@H]3O)c(C)c2)cc(C(F)(F)F)c1 [Example 61],“++++” (<50 “++++”),–,“+” (<0.5%),–,“++” (10 <= x <= 30%)
Cc1cc(-c2cc(F)c(C(F)(F)F)c(F)c2)ccc1[C@@H](O)[C@H]1O[C@H](CO)[C@@H](O)[C@H](O)[C@@H]1O [Example 64],“++++” (<50 “++++”),–,“++” (0.5 <= x <= 5%),–,“++” (10 <= x <= 30%)
Cc1cc(-c2cc(F)c(F)c(Cl)c2)ccc1[C@@H](O)[C@H]1O[C@H](CO)[C@@H](O)[C@H](O)[C@@H]1O [Example 73],“++++” (<50 “++++”),–,“++” (0.5 <= x <= 5%),–,“++” (10 <= x <= 30%)
Cc1cc(-c2cc(C(F)(F)F)cc(C(F)(F)F)c2)ccc1[C@@H](O)[C@H]1O[C@H](CO)[C@@H](O)[C@H](O)[C@@H]1O [Example 74],“++++” (<50 “++++”),–,“+” (<0.5%),–,“++” (10 <= x <= 30%)
Cc1cc(-c2cc(F)c(OC(C)C)c(F)c2)ccc1[C@@H](O)[C@H]1O[C@H](CO)[C@@H](O)[C@H](O)[C@@H]1O [Example 93],“++++” (<50 “++++”),–,“+” (<0.5%),–,“++” (10 <= x <= 30%)
